Assay in all cases: DTP human tumour cell line panel, 48 h
Assay [1] deals with SNB-19 CNS.
Assay [2] deals with U251 CNS.
Assay [3] deals with OVCAR-5 ovarian.
Assay [4] has as its system NCI-H226 lung.
Assay [5] deals with HCT-15 colon.
For assay [6], the system named is A549 NSCLC.
The test system of assay [7] is OVCAR-4 ovarian.
Assay [8] relates to K-562 leukemia.
Assay [9] has as its system SK-MEL-5 melanoma.
Assay [10] concerns SNB-75 CNS.

Where “and” joins values, the source holds several entries; their conditions need not be identical. Equal entries are not always repeated.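 Cells were grown in 96-well plates and exposed to each compound for 48 hours at five concentrations; endpoints were interpolated linearly between bracketing concentrations, or set to the highest concentration if not reached. Abbreviation: GI50, concentration required for 50% inhibition of growth. TGI marks complete inhibition of growth.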 A value given as a limit tells only on which side of the number the result lay.

On to `Nc1ccc(C(=O)Nc2ccccc2N)cc1`, for which the TGI in [1] was greater than 100 µM; in assay [2] it was 59.8 µM; in assay [3] it was greater than 82.7 µM; in [4] it was greater than 100 µM; in assay [5], greater than 100 µM; in assay [6] it was greater than 100 µM. Further, the TGI is greater than 76.5 µM in [7], greater than 100 µM in assay [8], 43.4 µM in assay [9] and greater than 93.1 µM in assay [10].

For the compound `CC12CC(=O)C3C(CCC4=CC(=O)CCC43C)C1CC=C2CC(=O)O` (stereo not drawn), the TGI in [1], in assay [2], in assay [3], in [4], in assay [5] and in assay [6] was greater than 100 µM in each case. Moreover, the concentration for total growth inhibition (TGI) in assay [7], in [8], in assay [9] and in assay [10] was greater than 100 µM in each case.

Take `COc1ccc(-c2nc3sccn3c2-c2ccnc(NCCCNS(=O)(=O)c3ccc(F)cc3)n2)cc1`: the GI50 in assay [1] is 4.43 µM; in assay [2] it was 3.7 µM; in [3], 4.59 µM; in [4] it was 1.59 µM; in assay [5] it was 2.4 µM; in assay [6], 2.94 µM. In addition, the GI50 in assay [7] was 2.49 µM; in assay [8] it was 1.43 µM; in assay [9] it was 1.06 µM; in [10], 2.25 µM. The total growth inhibition concentration (TGI) in assay [1] was greater than 100 µM; in assay [2], greater than 100 µM; in [3], greater than 100 µM; in [4] it was 5.28 µM; in assay [5], 10.6 µM; in assay [6], greater than 100 µM. The concentration for total growth inhibition (TGI) in assay [7] is 8.4 µM; in assay [8], greater than 100 µM; in assay [9], 2.28 µM; in assay [10], 6.04 µM.

As for `COc1cc(-c2nn(-c3cccc(NC(=O)CCN4CCN(C)CC4)c3)cc2-c2ccncc2)ccc1Cl`, the GI50 in assay [1] is 2.01 µM; in assay [2] it was 1.29 µM; in [3], 2.06 µM; in assay [4] it was 3.67 µM; in assay [5] it was 1.08 µM; in assay [6], 1.4 µM. Also, the GI50 is 1.73 µM in assay [7], 0.73 µM in [8], 0.529 µM in assay [9] and 0.591 µM in assay [10]. Further, the TGI in assay [1] was 8.89 µM; in [2], 3.4 µM; in assay [3] it was 5.82 µM; in [4], 22.3 µM; in assay [5] it was 4.11 µM; in [6], 4.9 µM. For the same compound, the TGI in [7] came out at 11.4 µM; in assay [8], 2.53 µM; in assay [9], 1.86 µM; in [10], 2.92 µM.

Regarding `O=c1[nH]c(SCc2ccccc2[N+](=O)[O-])nc2nc[nH]c12`, the concentration for total growth inhibition (TGI) in assay [1] was greater than 100 µM; in assay [2], greater than 100 µM; in [3], greater than 100 µM; in assay [4], > 100 µM and 98.3 µM; in [5], greater than 100 µM; in assay [6], greater than 100 µM. Also, the TGI in assay [7], in [8], in assay [9] and in [10] was greater than 100 µM each time. Besides, the GI50 was 84.7 µM and 33.4 µM in assay [4]; 30.3 µM and > 100 µM in assay [7]; > 100 µM and 49.5 µM in [10].

For `CC1CC(c2ccc(Cl)c(Cl)c2)=Nc2ccccc2S1` (stereo not drawn), the TGI in assay [1], in assay [2], in assay [3], in assay [4], in assay [5] and in [6] was greater than 100 µM in each case. For the same compound, the TGI in assay [7], in assay [8], in assay [9] and in [10] was greater than 100 µM throughout.

With `CN1CCc2cc3c4cc2C1Cc1ccc(cc1)Oc1cc(ccc1O)CC1c2c(cc(O)c(c2O4)O3)CCN1C` (stereo not drawn), the TGI was 7.38 µM in assay [1]; 3.16 µM in assay [2]; 14.8 µM in assay [3]; 4.97 µM in [4]; 4.27 µM in assay [5]; 6.11 µM in assay [6]. Besides, the TGI came out at 4.37 µM in assay [7], 4.54 µM in assay [8], 16.7 µM in assay [9] and 65.6 µM in assay [10].

On to `N#Cc1ccc(/C=C/C(=O)c2ccccc2)cc1`, for which the GI50 was 14.4 µM and 12.5 µM in [1]; 2.95 µM and 3.76 µM in assay [2]; 16.6 µM and 14.6 µM in assay [3]; 27.2 µM and 15.3 µM in assay [4]; 7.13 µM and 3.28 µM in [5]; 14.8 µM and 15.4 µM in assay [6]. For the same compound, the GI50 in assay [7] is 16.5 µM and 13.2 µM; in [8] it was 2.83 µM and 2.3 µM; in assay [9] it was 14 µM and 12.6 µM; in [10], 14.5 µM and 13.9 µM. The TGI was 27.4 µM and 25.1 µM in assay [1]; 9.52 µM and 11.8 µM in assay [2]; 31.1 µM and 30 µM in [3]; > 68.8 µM and 31 µM in assay [4]; 18.7 µM and 13.5 µM in assay [5]; 27.9 µM and 31.8 µM in assay [6]. The total growth inhibition concentration (TGI) in assay [7] is 36.5 µM and 27 µM; in assay [8], greater than 26.2 µM; in assay [9], 26.9 µM and 25.4 µM; in assay [10] it was 27.6 µM and 27.5 µM.

In the case of `COc1cc(/C=C/c2ccccn2)cc(OC)c1OC`, the TGI in assay [1], in assay [2], in assay [3], in [4], in assay [5] and in assay [6] was greater than 10 µM each time. In addition, the TGI in [7], in assay [8], in assay [9] and in [10] was greater than 10 µM in each case.

On to `Fc1ccc(-c2c(-c3ccncc3)[nH]c3nccnc23)cc1`, for which the GI50 in assay [1] was greater than 20.3 µM; in assay [2], 12.5 µM; in assay [3], 11.2 µM; in assay [4], 6.76 µM; in assay [5], 8.28 µM; in assay [6] it was 7.35 µM. Besides, the GI50 in assay [7] is greater than 16.7 µM; in assay [8] it was greater than 25 µM; in assay [9], 11 µM; in assay [10] it was 2.66 µM. In addition, the total growth inhibition concentration (TGI) in [1], in [2], in assay [3], in assay [4], in assay [5] and in assay [6] was greater than 25 µM in each case. Also, the TGI in [7], in [8], in assay [9] and in assay [10] was greater than 25 µM each time.

For the compound `CNCCN(C)Cc1cn[nH]c1-c1ccc(OC2CC(OCCC3CCOCC3)C2)cc1` (stereo not drawn), the GI50 in assay [1] is greater than 100 µM; in [2], 55.2 µM; in assay [3] it was greater than 100 µM; in assay [4], greater than 100 µM; in [5] it was greater than 100 µM; in [6] it was greater than 100 µM. The GI50 in assay [7] is greater than 85 µM; in assay [8], 33.3 µM; in [9], 34 µM; in assay [10] it was 38.2 µM. Besides, the TGI in assay [1], in [2], in assay [3], in assay [4], in [5] and in assay [6] was greater than 100 µM throughout. In addition, the TGI in [7], in assay [8], in assay [9] and in assay [10] was greater than 100 µM throughout.

Turning to `COC(CC1(OC)OC(=O)C=C1N)OC` (stereo not drawn), the concentration for total growth inhibition (TGI) in [1], in [2], in assay [3], in [4], in assay [5] and in assay [6] was greater than 100 µM each time. Also, the TGI in [7], in assay [8], in [9] and in [10] was greater than 100 µM in each case.

For the compound `COC(=O)NC(=O)c1cn(C2CCCCC2)c(=O)[nH]c1=O`, the TGI in [1], in assay [2], in assay [3], in assay [4], in assay [5] and in assay [6] was greater than 100 µM in each case. In addition, the TGI in [7], in assay [8], in assay [9] and in [10] was greater than 100 µM each time.

For `NC(=O)c1cc([N+](=O)[O-])cc([N+](=O)[O-])c1`, the TGI in assay [1], in [2], in [3], in assay [4], in [5] and in assay [6] was greater than 100 µM in each case. For the same compound, the TGI in assay [7], in assay [8], in assay [9] and in assay [10] was greater than 100 µM in each case.

Take `COC(=O)[C@]12CC[C@@H](C)[C@H](C)[C@@H]1C1=CC[C@@H]3[C@@]4(C)CC(=O)[C@H](O)[C@@](C)(CO)[C@@H]4C(=O)C[C@@]3(C)[C@]1(C)CC2`: the GI50 in [1] is 12.9 µM; in assay [2], 11.7 µM; in assay [3], 20.8 µM; in [4], 11.9 µM; in assay [5] it was 9.37 µM; in [6] it was 15.8 µM. The GI50 in [7] is 11 µM; in assay [8] it was 11.2 µM; in assay [9], 11.6 µM; in assay [10] it was 12.7 µM. For the same compound, the TGI is 27.8 µM in assay [1]; 25.1 µM in [2]; 37.6 µM in assay [3]; 35.3 µM in assay [4]; 23.3 µM in assay [5]; 32.9 µM in assay [6]. Further, the concentration for total growth inhibition (TGI) in [7] worked out at 25.1 µM; in assay [8], 40.7 µM; in [9], 23.9 µM; in assay [10], 27.1 µM.
